Source: paper PMC6548519 (Nature chemical biology, 2019)

Experiments:
FAAH-4 = target: T1, FAAH-4 (Caenorhabditis elegans, UniProt Q9U217); assay type: biochemical
T1 sequence (Q9U217 1-647): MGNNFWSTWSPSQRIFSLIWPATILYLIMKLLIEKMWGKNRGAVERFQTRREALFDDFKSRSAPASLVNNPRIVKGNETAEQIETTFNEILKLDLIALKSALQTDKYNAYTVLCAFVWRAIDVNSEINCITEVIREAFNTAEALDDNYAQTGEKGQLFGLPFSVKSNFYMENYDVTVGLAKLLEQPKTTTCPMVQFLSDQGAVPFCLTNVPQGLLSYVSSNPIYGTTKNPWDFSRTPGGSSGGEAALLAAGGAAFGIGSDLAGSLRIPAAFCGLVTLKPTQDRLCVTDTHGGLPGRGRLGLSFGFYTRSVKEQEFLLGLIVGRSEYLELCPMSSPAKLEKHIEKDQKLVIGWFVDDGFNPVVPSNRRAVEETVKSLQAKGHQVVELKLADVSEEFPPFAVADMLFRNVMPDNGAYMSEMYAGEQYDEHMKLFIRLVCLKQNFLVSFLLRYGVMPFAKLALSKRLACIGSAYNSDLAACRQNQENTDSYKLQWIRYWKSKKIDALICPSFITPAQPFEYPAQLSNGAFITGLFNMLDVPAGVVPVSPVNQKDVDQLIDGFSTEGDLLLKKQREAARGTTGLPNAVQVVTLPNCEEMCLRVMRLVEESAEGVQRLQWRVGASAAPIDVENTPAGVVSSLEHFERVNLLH

FAAH-1 = target: T2, FAAH-1 (Caenorhabditis elegans, UniProt Q17449); experiment: MS-based competitive ABPP of worms treated in vivo; assay type: cell-based
T2 sequence (Q17449 15-572): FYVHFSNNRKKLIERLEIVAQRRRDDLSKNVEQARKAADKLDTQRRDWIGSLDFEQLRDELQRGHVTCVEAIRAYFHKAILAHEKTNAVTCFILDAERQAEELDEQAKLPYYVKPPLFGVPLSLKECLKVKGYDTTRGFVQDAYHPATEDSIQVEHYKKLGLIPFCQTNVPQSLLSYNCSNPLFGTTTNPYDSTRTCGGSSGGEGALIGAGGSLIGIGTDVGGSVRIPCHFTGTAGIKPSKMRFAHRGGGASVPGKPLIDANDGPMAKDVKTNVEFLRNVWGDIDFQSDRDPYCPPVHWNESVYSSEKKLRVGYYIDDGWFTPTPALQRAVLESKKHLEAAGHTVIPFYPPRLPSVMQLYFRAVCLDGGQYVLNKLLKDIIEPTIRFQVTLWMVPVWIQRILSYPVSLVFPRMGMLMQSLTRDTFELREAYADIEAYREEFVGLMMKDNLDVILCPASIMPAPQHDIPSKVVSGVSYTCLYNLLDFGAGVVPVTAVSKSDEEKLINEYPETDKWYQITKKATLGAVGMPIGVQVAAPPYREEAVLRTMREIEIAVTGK

Row | SMILES | IC50 (FAAH-4) [µM] | MS-based competitive ABPP of worms treated in vivo (50 μM) (FAAH-1)
1 | O=C(Oc1ccc([N+](=O)[O-])cc1)N1CCC(C(O)(c2ccc3c(c2)OCO3)c2ccc3c(c2)OCO3)CC1 [compound 1, JZL184] | 11 | 
2 | NC(=O)c1cccc(-c2cccc(OC(=O)NC3CCCCC3)c2)c1 [compound 6, URB597] |  | URB597 also strongly engaged C. elegans FAAH-1 in vivo
